Laboratory results from US20120177797A1, “TASTE ENHANCING AGENT” (J-OIL MILLS, INC., priority 2009, published 2012).

Experiments:
Format in all cases: in vivo
[1] = Sensory evaluation, intensity of umami in aqueous MSG solution; conditions: additive-free = 3.0
Description: (§1) All sensory evaluation of taste was performed by individuals wearing a nose clip. The evaluation was performed by groups of three individuals, and the scores were averaged.
(§2) To a 0.2% aqueous sodium glutamate (MSG) solution (=umami), a 0.8% aqueous salt (NaCl) solution (=saltiness) and a 2% aqueous sucrose solution (=sweetness) were added 10 ppm linear aliphatic aldehydes having 3-12 carbon atoms shown in Table 1, respectively. Sensory evaluation was performed in which intensity of taste sensed when each of the aqueous solutions is introduced into the mouth is defined as “Intensity of umami” for the aqueous MSG solution, “Intensity of saltiness” for the aqueous NaCl solution and “Intensity of sweetness” for the aqueous sucrose solution. The score of aldehyde-free taste intensity was set to 3.0, and taste intensity upon addition of aldehyde was evaluated as follows. The results are shown in Table 1. • 1.0: Much weaker • 2.0: Weaker • 3.0: Similar • 4.0: Stronger • 5.0: Much Stronger
(§3) To a 0.2% aqueous sodium glutamate (MSG) solution (=umami), a 0.8% aqueous salt (NaCl) solution (=saltiness), a 2% aqueous sucrose solution (=sweetness) were added 10 ppm linear aliphatic alcohols having 2-11 carbon atoms, respectively. Sensory evaluation was performed in which intensity of taste sensed when each of the aqueous solutions is introduced into the mouth is defined as “Intensity of umami” for the aqueous MSG solution, “Intensity of saltiness” for the aqueous NaCl solution and “Intensity of sweetness” for the aqueous sucrose solution. The score of alcohol-free taste intensity was set to 3.0, and taste intensity upon addition was evaluated as follows. The results are shown in Table 3. • 1.0: Much weaker • 2.0: Weaker • 3.0: Similar • 4.0: Stronger • 5.0: Much stronger
(§4) To a 0.2% aqueous sodium glutamate (MSG) solution (=umami), a 0.8% aqueous salt (NaCl) solution (=saltiness), a 2% aqueous sucrose solution (=sweetness) were added 1 ppm n-hexanal and 1ppm 1-octene-3-ol each, respectively. Sensory evaluation was performed in which the intensity of taste sensed when each of the aqueous solutions is introduced into the mouth is defined as “Intensity of umami” for the aqueous MSG solution, “Intensity of saltiness” for the aqueous NaCl solution and “Intensity of sweetness” for the aqueous sucrose solution. The score of additive-free taste intensity was set to 3.0, and taste intensity upon addition was evaluated as follows. The results are shown in Table 9. • 1.0: Much weaker • 2.0: Weaker • 3.0: Similar • 4.0: Stronger • 5.0: Much stronger

[2] = Sensory evaluation, intensity of saltiness in aqueous NaCl solution; conditions: additive-free = 3.0
Description: as §1, §2, §3, §4

[3] = Sensory evaluation, intensity of sweetness in aqueous sucrose solution; conditions: additive-free = 3.0
Description: as §1, §2, §3, §4

[4] = Sensory evaluation whether salt usage can be reduced; conditions: 10 ppm added to 0.5% aqueous NaCl solution; for Scores in sensory evaluation (taste intensity, saltiness): 0.5% NaCl solution = 3.0, scale 1.0-5.0
Description: as §1
Evaluation was conducted to find whether salt usage can be reduced by the taste enhancing effects. To a 0.5% aqueous NaCl solution was added 10 ppm n-hexanal or 10 ppm 1-octen-3-ol. Taste intensity was determined in the sensory evaluation where the taste intensity of the 0.5% NaCl solution was set to 3.0. For comparison, sensory evaluation was also performed for a 0.8% and 0.6% concentration of aqueous NaCl solution. The sensory evaluation was evaluated as follows. The results are shown in Table 5. • 1.0: Much weaker • 2.0: Weaker • 3.0: Similar • 4.0: Stronger • 5.0: Much stronger

[5] = Sensory evaluation whether sucrose usage can be reduced; conditions: 10 ppm added to 1.5% aqueous sucrose solution; for Scores in sensory evaluation (taste intensity, sweetness): 1.5% sucrose solution = 3.0, scale 1.0-5.0
Description: as §1
Evaluation was conducted to find whether sucrose usage can be reduced by the taste enhancing effects. To a 1.5% aqueous sucrose solution was added 10 ppm n-hexanal or 10 ppm 1-octen-3-ol. Taste intensity was determined in the sensory evaluation where the taste intensity of the 1.5% sucrose solution was set to 3.0. For comparison, sensory evaluation was also performed for a 2.0% and 1.8% concentration of aqueous sucrose solution. The sensory evaluation was evaluated as follows. The results are shown in Table 6. • 1.0: Much weaker • 2.0: Weaker • 3.0: Similar • 4.0: Stronger • 5.0: Much stronger

[6] = Sensory evaluation, intensity of umami in aqueous MSG solution; conditions: additive-free = 3.0, scale 1.0-5.0
[7] = Sensory evaluation, intensity of saltiness in aqueous NaCl solution; conditions: additive-free = 3.0, scale 1.0-5.0
[8] = Sensory evaluation, intensity of sweetness in aqueous sucrose solution; conditions: additive-free = 3.0, scale 1.0-5.0
[9] = Sensory evaluation, intensity of umami in diluted soy sauce; conditions: 10 ppm in soy sauce diluted to 2% in water; aldehyde-free = 3.0; scale 1.0-5.0
Description: as §1
(§5) Sensory evaluation was performed for “Intensity of Umani ” and “ Intensity of Saltiness “. The score of aldehyde-free taste intensity was set to 3.0, and taste intensity upon addition was evaluated as follows. The results are shown in Table 7. • 1.0: Much weaker • 2.0: Weaker • 3.0: Similar • 4.0: Stronger • 5.0: Much stronger

[10] = Sensory evaluation, intensity of saltiness in diluted soy sauce; conditions: 10 ppm in soy sauce diluted to 2% in water; aldehyde-free = 3.0; scale 1.0-5.0
Description: as §1, §5

[11] = Sensory evaluation, intensity of sweetness in whipped cream; conditions: 100 ppm in whipped cream; aldehyde-free = 3.0; scale 1.0-5.0
Description: as §1
Sensory evaluation was performed for “Intensity of sweetness”. The score of aldehyde-free taste intensity was set to 3.0, and taste intensity upon addition was evaluated as follows. The results are shown in Table 8. • 1.0: Much weaker • 2.0: Weaker • 3.0: Similar • 4.0: Stronger • 5.0: Much stronger

[12] = 1 ppm added to 0.2% MSG, scale 1.0-5.0
[13] = 10 ppm added to 0.2% MSG, 1.0 much weaker to 5.0 much stronger, mean of three individuals, nose clip
[14] = 1 ppm added to 0.8% NaCl, scale 1.0-5.0
[15] = 10 ppm added to 0.8% NaCl, 1.0 much weaker to 5.0 much stronger
[16] = 1 ppm added to 2% sucrose, scale 1.0-5.0
[17] = 10 ppm added to 2% sucrose, 1.0 much weaker to 5.0 much stronger

Compound	Intensity of umami, Aqueous MSG solution [1, 12]	Intensity of umami, Aqueous MSG solution [1, 13]	Intensity of saltiness, Aqueous NaCl solution [2, 14]	Intensity of saltiness, Aqueous NaCl solution [2, 15]	Intensity of sweetness, Aqueous sucrose solution [3, 16]	Intensity of sweetness, Aqueous sucrose solution [3, 17]	Concentration of aqueous NaCl solution of similar saltiness intensity [4]	Scores in sensory evaluation (taste intensity, saltiness) [4]	Concentration of aqueous sucrose solution of comparable/similar sweetness intensity [5]	Scores in sensory evaluation (taste intensity, sweetness) [5]	Intensity of umami, Aqueous MSG solution ([6]; 0.01 ppm added to 0.2% MSG)	Intensity of umami, Aqueous MSG solution ([6]; 0.1 ppm added to 0.2% MSG)	Intensity of umami, Aqueous MSG solution ([6]; 100 ppm added to 0.2% MSG)	Intensity of umami, Aqueous MSG solution ([6]; 1000 ppm added to 0.2% MSG)	Intensity of saltiness, Aqueous NaCl solution ([7]; 0.01 ppm added to 0.8% NaCl)	Intensity of saltiness, Aqueous NaCl solution ([7]; 0.1 ppm added to 0.8% NaCl)	Intensity of saltiness, Aqueous NaCl solution ([7]; 100 ppm added to 0.8% NaCl)	Intensity of saltiness, Aqueous NaCl solution ([7]; 1000 ppm added to 0.8% NaCl)	Intensity of sweetness, Aqueous sucrose solution ([8]; 0.01 ppm added to 2% sucrose)	Intensity of sweetness, Aqueous sucrose solution ([8]; 0.1 ppm added to 2% sucrose)	other results
C=CC(O)CCCCC (centres unmarked) [Example 1-octen-3-ol, 1-octen-3-ol]	3.5	3.5	3.5	3.5	3.2	3.5	~0.6%	3.5	~1.8%	3.5	3.2	3.2	3.8	3.8	3.2	3.5	3.8	3.8	3.2	3.2	Intensity of sweetness, Aqueous sucrose solution ([8]; 100 ppm added to 2% sucrose): 3.5; Intensity of sweetness, Aqueous sucrose solution ([8]; 1000 ppm added to 2% sucrose): 3.5
CCCCCC=O [n-hexanal]	4.3	5.0	4.3	5.0	3.8	4.5	~0.8%	4.0	~2.0%	4.0	4.0	4.2	5.0	5.0	4.0	4.2	5.0	5.0	3.8	3.8	Intensity of umami [9]: 4.5; Intensity of saltiness [10]: 4.5; Intensity of sweetness [11]: 4.5; Intensity of umami, Aqueous MSG solution ([6]; 0.001 ppm added to 0.2% MSG): 3.5; Intensity of saltiness, Aqueous NaCl solution ([7]; 0.001 ppm added to 0.8% NaCl): 3.5; Intensity of sweetness, Aqueous sucrose solution ([8]; 0.001 ppm added to 2% sucrose): 3.5; Intensity of sweetness, Aqueous sucrose solution ([8]; 100 ppm added to 2% sucrose): 4.5; Intensity of sweetness, Aqueous sucrose solution ([8]; 1000 ppm added to 2% sucrose): 5.0
